# Reference: paper PMC6222871, “Suppression of Hepatitis C Virus Genome Replication and Particle Production by a Novel Diacylglycerol Acyltransferases Inhibitor” (Molecules : A Journal of Synthetic Chemistry and Natural …, 2018)
# Columns and labels:
# Huh7.5 cells = assay: TG quantification assay in Huh7.5 cells; assay type: cell-based; conditions: 8 μM, 72 h
# Description: Cells were washed with cold PBS, suspended, and homogenized in 1 mL of 5% NP-40/ddH2O solution. Then, homogenized cells were slowly heated to 90 °C for 5 min or until the NP-40 becomes cloudy, then cooled down to room temperature. Previous step was repeated to solubilize all TG. Cells were centrifuged for 2 min at top speed using a microcentrifuge to remove any insoluble material. Samples were diluted 10-fold with ddH2O before proceeding with the assay. […] Samples were added with 50 μL of reaction mix into each well and incubated at room temperature for 60 min while protected from light. Fluorescence was measured by using a fluorometric reader with Ex/Em = 535/590 nm. The amount of TG from standard sample was calculated using the following equation: Ts=Corrected absorbance−(y−intercept)/slope The amount of intracellular TG was calculated using the following equation: Concentration=Ts/Sv*D where the Ts is the amount of TG from standard curve and Sv is the volume of sample added to sample wells and D is the sample dilution factor.
# [1] = system: HCV NS3 (Huh7.5-J6/JFH1, genotype 2a); assay: western blot of HCV NS3 protein in Huh7.5-J6/JFH1 cells
# Description: (§1) Due to the tight coupling of viral genome replication to its protein expression, inhibition of viral RNA genome replication leads to a subsequent reduction of viral protein expression.
# (§2) (A) Dose-dependent western blot analysis of Huh7.5-J6/JFH1 cells treated with increasing concentrations of 10j for 72 h by measuring protein expression levels of HCV NS3 relative to the β-actin. Daclatasvir, an NS5A inhibitor was used as a positive control. (B) Time-dependent western blot analysis of J6/JFH1 RNA-transfected Huh7.5 cells treated with 8 μM of 10j for increasing periods of time analyzed by measuring protein expression levels of HCV NS3 relative to the β-actin. (C,D) Same experiments were performed as in (A,B) to study effects of 10j on the expression levels of the NS5A protein of Huh7.5-Bart79I cells in a dose- as well as time-dependent manners.
# (§3) Western blot analysis of Huh7.5-J6/JFH1 or Bart79I cells treated with 10j was conducted as previously described. Relative amounts of HNF4α proteins were quantified by using an HNF4α mouse monoclonal antibody (M04), clone 4E2 (Abnova) with the dilution of 1:1000.
# [2] = system: HCV genotype 1b (Huh7.5-Bart79I); assay: HCV genome replication in sub-genomic replicon Huh7.5-Bart79I cells by real-time RT-PCR
# Description: Quantitative real-time RT-PCR analysis to measure levels of HCV RNA and GAPDH was conducted as previously described. The cDNA synthesis and reverse transcription of miR-122 were performed by using Taqman quantitative RT-PCR (qRT-PCR) analysis. Taqmanq RT-PCR components including TaqMan miR122 probe, endogenous control U6 probe, TaqMan® MicroRNA reverse transcription Kit and TaqMan® universal master mix II were purchased from Thermo Fisher Scientific (Waltham, MA, USA)
# [3] = system: HCV NS5A (Huh7.5-Bart79I, genotype 1b); assay: western blot of HCV NS5A protein in Huh7.5-Bart79I cells; assay type: cell-based, hepatitis C virus
# Description: as §1, §2, §3
structure (smiles),measurement,setting,value
"O=C(NCc1ccco1)c1ccc2[nH]c(COc3ccc(C45CC6CC(CC(C6)C4)C5)cc3)nc2c1 [10j, 2-{[4-(adamant-1yl)phenoxy]methyl)-N-(furan-2-ylmethyl)-1H-benzo[d]imidazole-5-carboxamide]",reduction of endogenous level of TG,Huh7.5 cells,83%
same,EC50,"[1]; Hepatitis C virus, GETYPE2A, 72 h, read-out: concentration required for reducing 50% of HCV protein expression (EC50)",3.6 µM
same,time required for reducing 50% of HCV protein expression (T1/2),"[1]; genotype 2a, 10 μM of 10j, 8 μM (figure legend)",37.8 h
same,"T1/2, time required for reducing the viral RNAs by half","[2]; 8 μM, genotype 1b",19.2 h
same,EC50,"[2]; Hepatitis C virus, 72 h, read-out: EC50 HCV RNA, subgenomic replicon",3.3 µM
same,time required for reducing 50% of HCV protein expression (T1/2),"[3]; 10 μM of 10j, 8 μM (figure legend)",37.4 h
same,EC50,"[3]; Hepatitis C virus, NS5A, read-out: concentration required for reducing 50% of HCV protein expression (EC50)",4.1 µM
